According to paper PMC10564737, “Structure-based design of a phosphotyrosine-masked covalent ligand targeting the E3 ligase SOCS2” (Nature Communications, 2023):
Several values for one entry are separate records, joined by “and”; a condition that tells them apart may be missing. Equal entries are not always repeated.

Key:
[1] = target: T1, SBC2 (Homo sapiens, UniProt O14508); experiment: Covalent fluorescence polarization (FP) probe displacement assay; type: binding; conditions: SBC2 titration with 10 nM probe; read-out: KD of fluorescent probe measured with FP
T1 construct: SOCS2 (amino acids 32–198); His6 (N, cleaved yes); made in house; host or cells: E. coli BL21(DE3)
From the text: With the specific covalent modification of Cys111 established, we decided to fully characterize MN551 as a covalent SOCS2 inhibitor. […] (Fig. 2g, h, Supplementary Fig. 9). Due to the covalent nature of the competing inhibitor, a time-dependent reduction in the fraction of protein-bound probe is observed. […] This value illustrates reasonable specificity for a covalent inhibitor, with nonetheless scope for future optimization. In addition to characterizing the kinetic covalency parameters, we have also assessed the stability of the MN551 by monitoring its reactivity (half-life >70 min) with reduced glutathione (GSH) (Supplementary Fig. 10)[35].
To monitor the SBC2-ligand binding kinetics we designed a fluorescein-labeled small-molecule probe - compound 26. The fluorescence polarization (anisotropy) of a threefold serial dilution of 50 µM SBC2 in 10 nM of the probe in 100 mM HEPES pH 7.5, 50 mM NaCl, 0.5 mM TCEP, 2% DMSO was measured to determine the KL (Supplementary Fig. 9A) (BMG Labtech PHERAstar – firmware v1.33). Protein titration and the curves were fitted using GraphPad Prism 9, using one-site fitting models to determine the probe binding constant, KL. Samples were run in triplicate in 384 well plates, using a total volume per well of 16 μL. The bound fraction of the probe is measure using the equation:1 Fb=Af−A/Af−Ab Where,
A time-dependent reduction in probe anisotropy were measured for a 2-fold serial dilution of […] compound MN551 in 10 nM probe +300 μM SBC2. To determine the initial reversible binding affinity, the initial bound fraction of the probe at time = 0, Fbo (the y-intercept in Fb v/s Time plot, Supplementary Fig. 9B) was plotted against MN551 concentration, and the obtained IC50 is then converted to Ki (Supplementary Fig. 9C)[17]. The slope from Fb versus time graph when divided by Fbo gives rate of covalency, kobs. A plot of kobs v/s MN551 concentration using Michaelis–Menten model of GraphPad Prism 9, provides the parameters kinact (maximum potential rate of inactivation) and KI (concentration of MN551 at which kobs = kinact/2) (Supplementary Fig. 9D, E).
The observed first-order rate constant, kobs is related to KI and kinact by the equation:2 kobs=kinactI/KI+I
At [I]«[KI] the above equation is converted to3 […]
The slope from the plot of kobs against concentration of MN551 gives us the covalent efficiency parameter kinact/KI (Supp Fig. 9F)[30],[33].

[2] = target: T2, HiBiT-SOCS2 fusion in HeLa cells (Homo sapiens, UniProt O14508); experiment: Split-NanoLuc CETSA, live-cell mode; type: cell-based; parameters: Produrg CETSA screening, raw signal: reference not given here; conditions: for ΔT / ΔT, individual replicates n1-n3: Prodrug screen CETSA; for ΔT: live HeLa cells, 50 μM, 20 h, Mean n = 3; for ΔT, individual replicates n1-n3: single replicates; for Produrg CETSA screening, raw signal: 50uM 20hrs
T2 construct: encoding SOCS2 (32–198) in pBiT3.1-N expression vector; expressed in transfected cells; host or cells: HeLa
Description: One of the challenges with small-molecule binders displaying on-target activity with recombinant proteins, is to translate their utility to a cellular context. […] One of the advantages of CETSA is that target engagement can be monitored without the need for the development of a cell-permeable tracer molecule.
We utilized CETSA in a live-cell mode to evaluate the efficacy and rank the different prodrugs. We treated live HeLa cells with 50 μM compound (prodrugs) for 20 h and monitored Tagg shift as a proxy for the combo of prodrug permeability and unmasking (Fig. 4d). […] The observation could be because the POM group unmasking requires only esterase unlike the reliance of compounds 21–23 on esterase and phosphoramidase for unmasking an aryloxy phosphoramidate group.
N-terminal HiBiT-SOCS2 fusion was generated by encoding SOCS2 (32–198) in pBiT3.1-N expression vector (Promega). The transfection and target engagement assay were performed by modifying a NanoLuc target engagement protocol (Promega) with some small modifications. Briefly, HiBiT-SOCS2 fusion construct was transfected into HeLa cells using FuGENE HD (Promega) according to the manufacturer’s protocol. HiBiT-SOCS2 fusion construct was diluted into Transfection Carrier DNA (Promega) at a mass ratio of 1:100 or 1:10 for permeabilised and live-cell CETSA respectively. FuGENE HD was added at a ratio of 1:3 (μg DNA: μL FuGENE HD). 1 part (vol) of FuGENE HD complexes thus formed were combined with 20 parts (vol) of HeLa cells suspended at a density of 2 × 10^5 cells/mL, followed by incubation in a humidified, 37 °C + 5% CO2 incubator. After 20 h of incubation HeLa cells were detached and resuspended at a density of 2.5 × 10^5 cells/mL in Opti-MEM media without serum or phenol red but supplemented with protease inhibitor cocktail (Roche). Compounds stocks were added to cell suspension to maintain a final DMSO concentration of 1%. For the permeabilised assay format, 96-well PCR plates (Thermo) were pre-treated with digitonin to have a final well concentration of 50 μg/ml. 50 μl Opti-MEM cell suspension was then aliquoted to each well of the 96-well plate. The plates are then covered with microporous tape sheet (Qiagen) prior to incubation in a humidified, 37 °C + 5% CO2 incubator. Post-incubation we heat the PCR plates in 16-point temperature (split across two runs) curve spanning degrees 40-72 °C temperature span (CFX96 Touch Real-Time PCR Detection System, BioRad). The thermal cycler block was allowed to rise to the designated temperatures prior to placement of the PCR plates into the heating block and heat treatment for 3 min. After incubating the plates at room temperature for over 3 min, 50 μl of the Nano-Glo HiBiT Lytic mix (Promega) was added to each well. Samples were mixed by pipetting and placing the plate on an orbital shaker (600 rpm) for 5 min. 20 μl of the samples (in triplicates) were transferred to a AlphaPlate-384 plate (Perkin Elmer). Luminescence was recorded with GloMax Discover Microplate Reader (Promega). To generate apparent Tagg curves, the data is first converted to percent stabilized by relating the observed luminescence to the luminescence of the lowest temperature (40 °C) for that given sample. Data are then fitted to obtain apparent Tagg values using the Boltzmann Sigmoid equation using Graphpad Prism 9.

T2 sequence (O14508 32-198): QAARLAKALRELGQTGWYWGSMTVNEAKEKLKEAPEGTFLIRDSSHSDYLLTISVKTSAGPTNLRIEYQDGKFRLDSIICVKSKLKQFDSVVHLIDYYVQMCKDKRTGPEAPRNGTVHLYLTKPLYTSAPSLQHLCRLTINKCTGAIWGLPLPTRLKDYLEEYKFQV
T2 sequence (Q15370 whole entry, further chain, the tested form may be a part): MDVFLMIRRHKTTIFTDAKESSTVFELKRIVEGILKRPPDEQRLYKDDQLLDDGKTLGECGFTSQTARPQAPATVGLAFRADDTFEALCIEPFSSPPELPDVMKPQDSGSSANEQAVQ
T2 sequence (Q15369 whole entry, further chain, the tested form may be a part): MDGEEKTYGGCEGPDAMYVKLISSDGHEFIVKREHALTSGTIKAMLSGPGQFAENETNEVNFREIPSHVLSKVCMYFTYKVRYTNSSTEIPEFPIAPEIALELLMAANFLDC
T1 sequence (O14508 32-198): as the sequence (O14508 32-198) above
T1 sequence (Q15370 1-104 partner limits assumed): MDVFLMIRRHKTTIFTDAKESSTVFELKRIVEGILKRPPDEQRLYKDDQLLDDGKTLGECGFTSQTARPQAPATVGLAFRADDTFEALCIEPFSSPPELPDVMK
T1 sequence (Q15369 17-112 partner limits assumed): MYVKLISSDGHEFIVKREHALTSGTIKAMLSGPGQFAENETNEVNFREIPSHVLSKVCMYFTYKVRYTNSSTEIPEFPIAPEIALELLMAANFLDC

## Cc1cc(CNC(=O)[C@H](Cc2ccc(OP(=O)(O)O)cc2)NC(=O)Cc2ccc(F)cc2OCCNC(=S)Nc2ccc3c(c2)C(=O)OC32c3ccc(O)cc3Oc3cc(O)ccc32)ccc1Cl [Compound 26]
[1]
  Kd: 77.6 nM

## CC(C)OC(=O)[C@H](C)NP(=O)(Oc1ccc(C[C@H](NC(=O)Cc2ccc(F)cc2)C(=O)NCc2cccc(NC(=O)CCl)c2)cc1)Oc1cccc2ccccc12 (stereo partly drawn) [Compound 22]
[2]
  ΔT: 2.37 oC
  ΔT, individual replicates n1-n3: 2.11 oC and 3.40 oC and 1.59 oC

## COC(=O)[C@H](C)NP(=O)(Oc1ccc(C[C@H](NC(=O)Cc2ccc(F)cc2)C(=O)NCc2cccc(NC(=O)CCl)c2)cc1)Oc1cccc2ccccc12 (stereo partly drawn) [Compound 21]
[2]; n=1, temperature point 4 of 16, temperature not given
  Produrg CETSA screening, raw signal: 91803 and 91466 and 172287
[2]; n=1, temperature point 5 of 16, temperature not given
  Produrg CETSA screening, raw signal: 75745 and 107243 and 102225
[2]; n=1, temperature point 6 of 16, temperature not given
  Produrg CETSA screening, raw signal: 90752 and 132144 and 123125
[2]; n=1, temperature point 7 of 16, temperature not given
  Produrg CETSA screening, raw signal: 129001 and 137550 and 230259
[2]; n=1, temperature point 8 of 16, temperature not given
  Produrg CETSA screening, raw signal: 138976 and 169925 and 177765
[2]; n=1, temperature point 9 of 16, temperature not given
  Produrg CETSA screening, raw signal: 198178 and 192764 and 223087
[2]; n=1, temperature point 10 of 16, temperature not given
  Produrg CETSA screening, raw signal: 187698 and 251675 and 298741
[2]; n=1, temperature point 11 of 16, temperature not given
  Produrg CETSA screening, raw signal: 267213 and 290800 and 310548
[2]; n=1, temperature point 12 of 16, temperature not given
  Produrg CETSA screening, raw signal: 360938 and 373247 and 422856
[2]; n=1, temperature point 13 of 16, temperature not given
  Produrg CETSA screening, raw signal: 434129 and 461596 and 480477
[2]; n=1, temperature point 14 of 16, temperature not given
  Produrg CETSA screening, raw signal: 437890 and 471533 and 565224
[2]; n=1, temperature point 15 of 16, temperature not given
  Produrg CETSA screening, raw signal: 465739 and 467737 and 561619
[2]; n=1, temperature point 16 of 16, temperature not given
  Produrg CETSA screening, raw signal: 441792 and 461249 and 531619
[2]; n=2, temperature point 1 of 16, temperature not given
  Produrg CETSA screening, raw signal: 100426 and 115227 and 145975
[2]; n=2, temperature point 2 of 16, temperature not given
  Produrg CETSA screening, raw signal: 100401 and 85507 and 140649
[2]; n=2, temperature point 3 of 16, temperature not given
  Produrg CETSA screening, raw signal: 123706 and 103110 and 202648
[2]; n=2, temperature point 4 of 16, temperature not given
  Produrg CETSA screening, raw signal: 103160 and 69960 and 120366
[2]; n=2, temperature point 5 of 16, temperature not given
  Produrg CETSA screening, raw signal: 75996 and 86411 and 132074
[2]; n=2, temperature point 6 of 16, temperature not given
  Produrg CETSA screening, raw signal: 123683 and 120963 and 144901
[2]; n=2, temperature point 7 of 16, temperature not given
  Produrg CETSA screening, raw signal: 143611 and 177701 and 227556
[2]; n=2, temperature point 8 of 16, temperature not given
  Produrg CETSA screening, raw signal: 172997 and 193471 and 214613
[2]; n=2, temperature point 9 of 16, temperature not given
  Produrg CETSA screening, raw signal: 198669 and 236779 and 246686
[2]; n=2, temperature point 10 of 16, temperature not given
  Produrg CETSA screening, raw signal: 209139 and 261273 and 295556
[2]; n=2, temperature point 11 of 16, temperature not given
  Produrg CETSA screening, raw signal: 246514 and 287579 and 323688
[2]; n=2, temperature point 12 of 16, temperature not given
  Produrg CETSA screening, raw signal: 393463 and 428191 and 449673
[2]; n=2, temperature point 13 of 16, temperature not given
  Produrg CETSA screening, raw signal: 441856 and 476194 and 509704
[2]; n=2, temperature point 14 of 16, temperature not given
  Produrg CETSA screening, raw signal: 497788 and 532165 and 547547
[2]; n=2, temperature point 15 of 16, temperature not given
  Produrg CETSA screening, raw signal: 523691 and 513819 and 551344
[2]; n=2, temperature point 16 of 16, temperature not given
  Produrg CETSA screening, raw signal: 478273 and 472552 and 530261
[2]; n=3, Temp, 0C 62.3
  Produrg CETSA screening, raw signal: 20167
[2]; n=3, Temp, 0C 66.1
  Produrg CETSA screening, raw signal: 12666 and 19260 and 24872
[2]; n=3, Temp, 0C 69.3
  Produrg CETSA screening, raw signal: 18005 and 19840 and 24313
[2]; n=3, Temp, 0C 71.1
  Produrg CETSA screening, raw signal: 19926 and 19187 and 22421
[2]; n=3, Temp, 0C 72
  Produrg CETSA screening, raw signal: 14765 and 18884 and 20941
[2]
  ΔT: 0.60 oC
  ΔT, individual replicates n1-n3: 1.03 oC and -0.02 oC and 0.80 oC
